Tested on: HT-29
Experiment: Antiproliferative activity against human HT-29 cells
Assay type: functional, cell-based

Row | IC50 [µM] | SMILES
1 | 2 | C/C=C1/NC(=O)[C@H](CC(N)=O)NC(=O)/C(=C\C)NC(=O)[C@H](C(C)C)NC(=O)[C@H](O)[C@@H]([C@@H](C)CCCCCCCC)NC(=O)[C@@H]2CCCN2C(=O)[C@H](CC(N)=O)N(C)C(=O)[C@H]([C@@H](C)O)NC(=O)[C@@H](C)NC(=O)[C@H](CC(N)=O)NC1=O [MINUTISSAMIDE A]
2 | 20 | C/C=C1/NC(=O)[C@H](CC(N)=O)NC(=O)/C(=C\C)NC(=O)[C@H](C(C)C)NC(=O)[C@H](O)[C@@H]([C@@H](C)CCCCCCCCCl)NC(=O)[C@@H]2CCCN2C(=O)[C@H](CC(N)=O)N(C)C(=O)[C@H]([C@@H](C)O)NC(=O)[C@@H](C)NC(=O)[C@H](CC(N)=O)NC1=O [MINUTISSAMIDE B]
